Measurements from patent publication US7605165B2, “Phenylalanine derivatives” (Ajinomoto Co., Inc., priority 2002, dated 2009).

Key:
integrin α4β7 = molecular target: T1, integrin α4β7 (Homo sapiens, UniProt P13612+P26010); experiment: Assessment of VCAM-1/α4β7 binding antagonistic activity (RPMI-8866 cells binding to VCAM-1); format: cell-based; conditions: RPMI-8866 human B lymphoma cells binding to recombinant human VCAM-1, binding buffer with 4 mM MnCl2; read-out: integrin VCAM/α4 binding antagonistic activity (IC50) α4β7
T1 construct: lymphoma cell strain RPMI-8866 of human B cells, known to express integrin α4β7; endogenous in cells; host or cells: RPMI-8866, human B-cell lymphoma line
T1 sequence (P13612 34-1032): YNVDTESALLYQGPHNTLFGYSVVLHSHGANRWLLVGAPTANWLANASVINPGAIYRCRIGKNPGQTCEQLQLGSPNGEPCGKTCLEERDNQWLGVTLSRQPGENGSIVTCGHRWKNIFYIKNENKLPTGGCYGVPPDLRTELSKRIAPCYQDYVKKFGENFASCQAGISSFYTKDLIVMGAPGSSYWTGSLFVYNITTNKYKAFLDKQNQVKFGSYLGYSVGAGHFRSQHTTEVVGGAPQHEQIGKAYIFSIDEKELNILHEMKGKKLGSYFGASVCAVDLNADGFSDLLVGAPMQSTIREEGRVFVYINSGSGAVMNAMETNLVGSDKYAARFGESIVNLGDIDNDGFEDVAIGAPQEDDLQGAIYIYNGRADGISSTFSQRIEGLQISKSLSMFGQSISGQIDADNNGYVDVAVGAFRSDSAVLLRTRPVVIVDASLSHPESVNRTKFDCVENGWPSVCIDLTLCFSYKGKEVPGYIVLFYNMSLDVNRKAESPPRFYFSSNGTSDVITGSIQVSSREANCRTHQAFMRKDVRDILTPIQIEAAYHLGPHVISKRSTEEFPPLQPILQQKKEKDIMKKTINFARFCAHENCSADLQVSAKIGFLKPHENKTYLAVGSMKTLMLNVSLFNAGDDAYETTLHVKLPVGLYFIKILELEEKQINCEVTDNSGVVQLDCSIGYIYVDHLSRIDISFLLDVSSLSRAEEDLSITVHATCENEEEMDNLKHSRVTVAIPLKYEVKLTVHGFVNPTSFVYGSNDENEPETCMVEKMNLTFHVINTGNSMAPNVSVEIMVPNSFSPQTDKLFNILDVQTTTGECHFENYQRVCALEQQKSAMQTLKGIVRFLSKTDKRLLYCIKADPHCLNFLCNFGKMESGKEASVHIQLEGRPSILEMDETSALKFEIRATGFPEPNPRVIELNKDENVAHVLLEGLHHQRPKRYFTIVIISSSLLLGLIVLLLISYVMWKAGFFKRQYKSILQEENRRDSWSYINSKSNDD
T1 sequence (P26010 20-798): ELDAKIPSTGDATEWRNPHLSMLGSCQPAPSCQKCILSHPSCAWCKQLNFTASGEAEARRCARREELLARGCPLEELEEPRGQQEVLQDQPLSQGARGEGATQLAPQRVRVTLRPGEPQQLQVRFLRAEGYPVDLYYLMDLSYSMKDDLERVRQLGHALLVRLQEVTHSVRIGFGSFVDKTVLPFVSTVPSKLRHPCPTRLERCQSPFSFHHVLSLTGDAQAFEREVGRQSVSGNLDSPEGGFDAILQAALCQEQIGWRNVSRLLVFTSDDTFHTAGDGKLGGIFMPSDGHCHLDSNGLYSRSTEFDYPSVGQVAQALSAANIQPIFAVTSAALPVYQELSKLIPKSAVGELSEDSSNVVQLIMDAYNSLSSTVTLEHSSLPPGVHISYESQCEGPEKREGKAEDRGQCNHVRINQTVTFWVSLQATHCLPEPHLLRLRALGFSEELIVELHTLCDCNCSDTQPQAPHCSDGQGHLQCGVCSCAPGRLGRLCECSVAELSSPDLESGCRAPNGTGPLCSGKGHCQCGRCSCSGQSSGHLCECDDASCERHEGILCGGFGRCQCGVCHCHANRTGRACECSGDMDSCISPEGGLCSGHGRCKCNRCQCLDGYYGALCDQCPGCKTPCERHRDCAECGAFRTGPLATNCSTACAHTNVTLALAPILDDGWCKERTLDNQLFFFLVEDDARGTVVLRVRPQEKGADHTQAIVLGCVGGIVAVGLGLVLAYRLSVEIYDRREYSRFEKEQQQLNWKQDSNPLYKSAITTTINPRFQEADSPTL
Description: The capacity of a test substance antagonistic to the binding of lymphoma cell strain RPMI-8866 of human B cells, known to express integrin α4β7, to VCAM-1 was determined.
(§1) 100 μl/well of a solution (500 ng/ml) of recombinant human VCAM-1 (R & D systems) solution diluted with buffer A (0.1 M NaHCO3, pH 9.6) was added to a micro titer plate having 96 wells (Nunc Maxisorp). After the incubation at 4° C. overnight, unbound VCAM-1 was removed by washing once with PBS. After completion of the washing, a buffer (buffer B) obtained by diluting Block Ace (Dainippon Pharmaceutical Co., Ltd.) with PBS to 1/4 concentration was added in an amount of 150 μl/well. After the incubation at room temperature for 1 hour, buffer B was removed and the plate was washed with PBS once.
RPMI-8866 cells were washed with DMEM twice and incubated in Dulbecco modified Eagle medium containing 10 μg/ml of Calcein-AM (Wako Pure Chemical Industries, Ltd.) (SIGMA, hereinafter referred to as “DMEM”) in dark place at 37° C. for 30 minutes to label with fluorescence. The cells were again suspended in a binding buffer (20 mM HEPES, DMEM containing 0.1% BSA) containing 4 mM of MnCl2.
(§2) 50 μl of a test substance of various concentrations obtained by the dilution with the binding buffer was added to the plate. Immediately thereafter, 50 μl (final volume: 100 μl/well) of the fluorescent RPMI-8866 cells (4×10^6 cells/ml) were added thereto, and they were incubated in dark place at room temperature for 30 minutes. After the shaking on a plate shaker (IKA MTS-4) at 800 rpm for 30 seconds, the solution was immediately removed to remove the unbound cells. The fluorescence quantity of the bound cells remaining in the wells was determined with a fluorescent plate reader (Wallac 1420 ARVO multi-label counter) (filter excitation wave length: 485 nm, emission wave length: 535 nm). The fluorescent strength thus obtained is proportional to the number of RPMI-8866 cells bound to VCAM-1 and remaining on the plate. The binding rate of each test material in various concentrations was determined while the fluorescent strength of the test material-free well was determined to be 100%.

integrin α4β1 = molecular target: T2, integrin α4β1 (Homo sapiens, UniProt P05556+P13612); experiment: Assessment of VCAM-1/α4β1 binding antagonist activity (Jurkat cells binding to VCAM-1); format: cell-based; conditions: Jurkat human T cells binding to recombinant human VCAM-1; read-out: integrin VCAM/α4 binding antagonistic activity (IC50) α4β1
T2 construct: cell strain Jurkat (ATCC TIB-152) of human T cells, known to express integrin α4β1; endogenous in cells; host or cells: Jurkat (ATCC TIB-152), human T cells
T2 sequence (P05556 21-798, one chain of several): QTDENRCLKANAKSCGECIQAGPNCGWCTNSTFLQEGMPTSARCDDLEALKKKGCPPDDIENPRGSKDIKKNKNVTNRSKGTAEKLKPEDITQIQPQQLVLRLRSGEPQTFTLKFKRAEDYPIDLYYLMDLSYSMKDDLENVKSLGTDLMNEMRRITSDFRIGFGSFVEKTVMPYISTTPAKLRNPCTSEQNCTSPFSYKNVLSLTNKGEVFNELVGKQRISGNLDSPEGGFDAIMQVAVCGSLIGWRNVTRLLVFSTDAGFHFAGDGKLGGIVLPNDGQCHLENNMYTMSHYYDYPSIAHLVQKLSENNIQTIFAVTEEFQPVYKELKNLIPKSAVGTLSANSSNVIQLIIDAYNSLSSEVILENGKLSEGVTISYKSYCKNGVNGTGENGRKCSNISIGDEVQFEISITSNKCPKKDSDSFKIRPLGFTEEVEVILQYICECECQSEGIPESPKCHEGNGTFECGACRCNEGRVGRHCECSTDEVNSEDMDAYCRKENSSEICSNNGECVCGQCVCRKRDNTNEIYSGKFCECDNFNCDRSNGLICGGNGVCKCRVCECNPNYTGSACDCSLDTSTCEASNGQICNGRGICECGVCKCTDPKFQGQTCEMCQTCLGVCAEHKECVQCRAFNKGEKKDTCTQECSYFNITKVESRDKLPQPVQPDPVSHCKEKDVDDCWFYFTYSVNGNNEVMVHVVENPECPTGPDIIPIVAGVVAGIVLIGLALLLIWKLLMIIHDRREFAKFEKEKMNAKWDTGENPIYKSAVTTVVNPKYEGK
Description: The capacity of a test substance antagonistic to the binding of cell strain Jurkat (ATCC TIB-152) of human T cells, known to express integrin α4β1, to VCAM-1 was determined.
as §1
Jurkat cells were washed with Dulbecco modified Eagle medium (SIGMA, hereinafter referred to as “DMEM”) twice and then incubated in DMEM containing 10 μg/ml of Calcein-AM (Wako Pure Chemical Industries, Ltd.) at 37° C. in dark place for 30 minutes to label with fluorescence. The cells were again suspended in a binding buffer (20 mM HEPES, DMEM containing 0.1% BSA).
as §2, with “Jurkat” for “RPMI-8866”

Structure (SMILES)	IC50 (integrin α4β7) [nM]	IC50 (integrin α4β1) [nM]
CN(C)c1ccc2c(c1)c(=O)n(-c1ccc(C[C@H](NC(=O)c3c(Cl)cccc3Cl)C(=O)O)cc1)c(=O)n2C [Reference Example 108]	3.3	57
COc1ccc2nnn(-c3ccc(C[C@H](NC(=O)c4c(Cl)cccc4Cl)C(=O)O)cc3)c(=O)c2c1 [Reference Example 84]	20	158
O=C(N[C@@H](Cc1ccc(-n2c(=O)c3ccccc3n(Cc3c(Cl)cccc3Cl)c2=O)cc1)C(=O)O)c1c(Cl)cccc1Cl [Reference Example 114]	27	190
Cc1cccc(Cl)c1C(=O)N[C@@H](Cc1ccc(-n2c(=O)c3ccccc3n(C)c2=O)cc1)C(=O)O [Reference Example 162]	0.2	34
Cn1c(=O)n(-c2ccc(C[C@H](NC(=O)c3c(Cl)cccc3Cl)C(=O)O)cc2)c(=O)c2cc([N+](C)(C)C)ccc21 [Reference Example 112]	1.1	37
O=C(N[C@@H](Cc1ccc(-n2c(=O)c3ccccc3n(Cc3c(F)cccc3F)c2=O)cc1)C(=O)O)c1c(Cl)cccc1Cl [Example 4]	2.8	26

Second part, the compound after the results:

IC50 (integrin α4β7) [nM]	IC50 (integrin α4β1) [nM]	Structure (SMILES)
76.4	2020	CCN(C)c1nc2ccccc2c(=O)n1-c1ccc(C[C@H](NC(=O)c2c(Cl)cccc2Cl)C(=O)O)cc1 [compound 129]
0.5	6	Cn1c(=O)n(-c2ccc(C[C@H](NC(=O)c3c(Cl)cncc3Cl)C(=O)O)cc2)c(=O)c2ccccc21 [compound 169]
24	500	Cc1ccccc1Cn1c(=O)n(-c2ccc(C[C@H](NC(=O)c3c(Cl)cccc3Cl)C(=O)O)cc2)c(=O)c2ccccc21 [compound 120]
5.7	1340	CCOc1nc2ccc(F)cc2c(=O)n1-c1ccc(C[C@H](NC(=O)c2c(Cl)cccc2Cl)C(=O)O)cc1 [compound 92]
